Measured values reported in publication PMC8954350, “Non-Canonical Cannabinoid Receptors with Distinct Binding and Signaling Properties in Prostate and Other Cancer Cell Types Mediate Cell Death” (International Journal of Molecular Sciences, 2022).
Like-named read-outs stand apart in the source and are kept apart here.

What was measured:
[1] = system: CBRs expressed in PC-3 membranes; experiment: [^3H]WIN-55,212-2 competitive binding screen, PC-3 membranes; parameters: species or system human
Method: (§1) The assay was conducted as previously detailed. […] All binding reactions were conducted in triplicate, in a final volume of 1 mL, and, following mixing, were incubated for 20 min in a 37 °C water bath to achieve equilibrium. After incubation, reactions were terminated by rapid vacuum filtration through Whatman GF/B glass fiber filters (Brandel; Gaithersburg, MD, USA), followed by three washes of 4 mls of ice-cold filtration buffer (50 mM Tris, pH 7.4, and 0.05% bovine serum albumin). Samples were punched out from filter papers into scintillation vials, to which 4 mls of ScintiverseTM-BDR cocktail scintillation fluid (Fisher Scientific; Hampton, NH, USA) was added. Filters were incubated at room temperature for 24 h in scintillation fluid, vortexed, and radioactivity (measured as DPMs) was quantified via a liquid scintillation spectrophotometer (Tri Carb 2100 TR Liquid Scintillation Analyzer, Packard Instruments, Meriden, CT, USA).
(§2) These experiments were conducted to screen well-characterized cannabinoid ligands with high affinity for canonical CB1 and/or CB2Rs for binding to CBRs expressed in prostate cancer cells lines, as detailed in [33]. […] All binding reactions were conducted in triplicate, in a final volume of 1 mL, and, following mixing, were incubated for 20 min in a 37 °C water bath to achieve equilibrium. After incubation, reactions were terminated by rapid vacuum filtration and processed for radioactivity, as detailed in Section 4.5.1.

[2] = system: CBRs expressed in DU-145 membranes; type: binding, human
Method: as §1, §2

[3] = target: T1, canonical CBRs stably expressed in CHO-hCB2 (Homo sapiens, UniProt P34972); experiment: [^35S]GTPγS binding, CHO-hCB2 homogenates; type: biochemical; details: 10 μM
T1 construct: expressed in transfected cells
Method: Non-specific binding was defined as radioactivity remaining in the presence of 10 μM of non-radioactive GTPγS and subtracted from total binding to determine specific [^35S]GTPγS binding. All binding reactions were conducted in triplicate, in a final volume of 1 mL, and, following mixing, were incubated for 30 min at 30 °C. After incubation, reactions were terminated by rapid vacuum filtration through Whatman GF/B glass fiber filters (Brandel; Gaithersburg, MD, USA), followed by three washes of 4 mls of ice-cold filtration buffer (50 mM Tris, pH 7.4, and 0.05% bovine serum albumin). Samples were punched out from filter papers into scintillation vials, to which 4 mls of ScintiverseTM-BDR cocktail scintillation fluid (Fisher Scientific; Hampton, NH, USA) was added. Filters were incubated at room temperature for 24 h in scintillation fluid, vortexed, and radioactivity (measured as DPMs) was determined via a liquid scintillation spectrophotometer (Tri Carb 2100 TR Liquid Scintillation Analyzer, Packard Instruments, Meriden, CT, USA).

[4] = target: T1, canonical CBRs stably expressed in CHO-hCB2; experiment: Adenylyl cyclase modulation in whole CHO-hCB2 cells; type: cell-based; details: 10 μM
Method: Growth media contained FetalPlex (10%) and 1% pennicillin/streptomycin. Cells were cultured overnight in a humidified incubator maintained at 37 °C with 5% CO2. For some experiments, a subset of wells were treated overnight with pertussis toxin (2 μL/mL) to abolish Gi/Go protein-mediated signaling. […] After [^3H]adenine incubation, media was replaced with 0.5 mL of a Krebs–Ringer–HEPES solution (10 mM HEPES, 110 mM NaCl, 25 mM Glucose, 55 mM Sucrose, 5 mM KCl, 1 mM MgCl2, and 1.8 mM CaCl2 at pH 7.4) containing 0.5 mM IBMX, 10 μM forskolin and a receptor-saturating concentration (10^−5 M) of cannabinoid ligands to be examined. Plates were then floated in a 37 °C water bath for 15 min, followed by termination of reactions by addition of 50 μL of 2.2 N HCl to each well. Then, [^3H]cAMP was isolated by alumina column chromatography and collection in a 4 mL elution volume. Finally, 10 mL of Scintiverse^TM BD Cocktail scintillation fluid (Fisher Scientific; Hampton, NH, USA) was added to eluates and radioactivity (quantified as DPMs) was quantified via a liquid scintillation spectrophotometer (Tri Carb 2100 TR Liquid Scintillation Analyzer, Packard Instruments, Meriden, CT, USA).

DU-145 cells [5] = experiment: LDH cytotoxicity, DU-145 cells; type: cell-based, human; details: 24 h
Method: DU-145 cells were seeded at a density of 130 × 10^3 cells/well in 6-well plates and maintained in an incubator at 37 °C with 5% CO2 for 24 h. […] Treated cells were incubated for an additional 24 h, followed by quantification of LDH release. LDH released from damaged or dying cells oxidizes lactate to produce NADH which then reacts with a water-soluble tetrazolium salt (WST) reagent to produce a yellow-colored product. The intensity of the yellow-colored product was detected with an OD reading at 450 nm (quantified by a BioTek microplate reader interfaced with SoftMax Pro 5.4.5 software; Winooski, VT, USA) and was directly proportional to the amount of LDH released. Percent cytotoxicity was calculated according to the manufacturer’s protocol as the following: % Cytotoxicity=OD450 Supernatant/Supernatant+Lysate

DU-145 cells [6] = experiment: ATP-dependent cell viability, DU-145 cells; type: cell-based, human; details: co-incubation with 10 μM ligand, 24 h
Method: Adenosine 5′-triphosphate (ATP) levels were quantified as a measure of DU-145 cell viability in response to cannabinoid treatement using an ATP-luciferase-based bioluminescence assay kit (CellTiter-Glo®, Sigma, MO, USA) and BioTek microplate reader (Winooski, VT, USA). DU-145 cells were seeded at a density of 8 × 10^3 cells/well in a 96-well plate and incubated for 24 h at 37 °C with 5% CO2. The next day, cells were treated with either vehicle or experimental drugs (10 or 50 μM) and incubated for another 24 h at 37 °C with 5% CO2. ATP levels were assessed following incubation by interpolation from an ATP standard curve according to the manufacturer’s protocol, as described previously.

DU-145 cells [7] = experiment: Mitochondrial membrane potential (JC-1 staining), DU-145 cells; type: cell-based, human; details: 24 h; for mitochondrial membrane potential (MMP) depolarization: JC-1
[8] = target: T2, canonical mouse CB1Rs (mouse brain) (Mus musculus, UniProt P47746); type: binding; details: 1 μM ligand, mouse brain membranes
T2 construct: membranes prepared from mouse brain containing a high density of mouse CB1 receptors (mCB1); from tissue; host or cells: mouse brain membrane homogenate
Method: as §1

[9] = system: CBRs expressed in C6-glioma cells; experiment: [^3H]CP-55,940 competitive binding screen, C6-glioma membranes; parameters: species or system mouse; details: 1 μM ligand, 0.2 nM radioligand
Method: as §1

[10] = system: CBRs expressed in PC-12 cells; experiment: [^3H]CP-55,940 competitive binding screen, PC-12 membranes; parameters: species or system rat; details: 1 μM ligand, 0.2 nM radioligand
Method: as §1

[11] = system: CBRs expressed in HeLa cells; experiment: [^3H]CP-55,940 competitive binding screen, HeLa membranes; parameters: species or system human; details: 1 μM ligand, 0.2 nM radioligand
Method: as §1

[12] = system: CBRs expressed in PC-3 cells; experiment: [^3H]CP-55,940 competitive binding screen, PC-3 membranes; parameters: species or system human; details: 1 μM ligand, 0.2 nM radioligand
Method: as §1

[13] = system: CBRs expressed in DU-145 cells; experiment: [^3H]CP-55,940 competitive binding screen, DU-145 membranes; parameters: species or system human; details: 1 μM ligand, 0.2 nM radioligand
Method: as §1

[14] = system: CBRs expressed in C6-glioma cells; experiment: [^3H]WIN-55,212-2 competitive binding screen, C6-glioma membranes; parameters: species or system mouse; details: 1 μM ligand, 1 nM radioligand
Method: as §1

[15] = system: CBRs expressed in PC-12 cells; experiment: [^3H]WIN-55,212-2 competitive binding screen, PC-12 membranes; parameters: species or system rat; details: 1 μM ligand, 1 nM radioligand
Method: as §1

[16] = system: CBRs expressed in HeLa cells; experiment: [^3H]WIN-55,212-2 competitive binding screen, HeLa membranes; parameters: species or system human; details: 1 μM ligand, 1 nM radioligand
Method: as §1

[17] = system: canonical human CB1Rs (CHO-hCB1); parameters: method as in PMID 34592231; details: 1 μM ligand, 0.2 nM radioligand, CHO-hCB1 membranes; cited from earlier work
[18] = system: canonical human CB2Rs (CHO-hCB2); parameters: method as in PMID 34592231; details: 1 μM ligand, 0.2 nM radioligand, CHO-hCB2 membranes; cited from earlier work
[19] = system: canonical human CB1Rs (CHO-hCB1); parameters: method as in PMID 34592231; details: 1 μM ligand, 1 nM radioligand, CHO-hCB1 membranes; cited from earlier work
[20] = system: canonical human CB2Rs (CHO-hCB2); parameters: method as in PMID 34592231; details: 1 μM ligand, 1 nM radioligand, CHO-hCB2 membranes; cited from earlier work

T1 sequence (P34972 whole entry): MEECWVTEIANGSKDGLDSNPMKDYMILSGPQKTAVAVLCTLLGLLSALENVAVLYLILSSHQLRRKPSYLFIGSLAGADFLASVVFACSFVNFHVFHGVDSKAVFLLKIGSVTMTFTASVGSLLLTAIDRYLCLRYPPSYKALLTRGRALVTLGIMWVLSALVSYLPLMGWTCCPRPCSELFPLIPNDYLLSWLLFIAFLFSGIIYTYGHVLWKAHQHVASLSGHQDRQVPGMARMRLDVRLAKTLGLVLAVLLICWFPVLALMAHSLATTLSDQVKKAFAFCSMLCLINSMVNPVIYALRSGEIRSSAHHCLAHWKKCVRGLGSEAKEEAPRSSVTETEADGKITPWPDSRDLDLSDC
T2 sequence (P47746 whole entry): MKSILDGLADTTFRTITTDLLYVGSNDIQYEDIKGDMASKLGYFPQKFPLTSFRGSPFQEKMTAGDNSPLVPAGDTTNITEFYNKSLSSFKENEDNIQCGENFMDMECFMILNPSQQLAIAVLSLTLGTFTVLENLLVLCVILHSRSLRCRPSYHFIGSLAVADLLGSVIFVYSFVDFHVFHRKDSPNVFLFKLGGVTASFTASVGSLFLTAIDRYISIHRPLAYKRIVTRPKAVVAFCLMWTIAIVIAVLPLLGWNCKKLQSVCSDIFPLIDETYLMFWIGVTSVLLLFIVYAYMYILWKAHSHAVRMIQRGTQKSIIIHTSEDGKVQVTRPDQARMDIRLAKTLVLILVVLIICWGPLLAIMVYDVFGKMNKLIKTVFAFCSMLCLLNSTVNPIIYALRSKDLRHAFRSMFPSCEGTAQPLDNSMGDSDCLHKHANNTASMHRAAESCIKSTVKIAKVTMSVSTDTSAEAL

What does the source list for `COc1ccc(C(=O)c2c(C)n(CCN3CCOCC3)c3cc(I)ccc23)cc1` [AM-630]?
displacement of [^3H]WIN-55,212-2 ([1]; 1 μM ligand, 1 nM radioligand, PC-3 membranes): failed to displace; displacement of [^3H]WIN-55,212-2 [2]: failed to displace; decrease in basal G protein activity ([^35S]GTPγS binding) [3]: 26.15 ± 5.15%; enhancement of forskolin-stimulated intracellular cAMP levels [4]: 117 ± 27.1%; LDH release (DU-145 cells [5]; 10 μM): No significant effects; increase in LDH release (DU-145 cells [5]; 50 μM): neither low (10 μM) nor high (50 μM) concentrations of WIN-55,212-2, AM-251 or AM-630 altered LDH release; attenuation of GW-405833 (50 μM)-induced LDH release (DU-145 cells [5]; co-incubation with 10 μM ligand): significantly attenuated; attenuation of GW-405833 (50 μM)-induced reduction in ATP concentrations (DU-145 cells [6]): significantly attenuated; MMP on co-incubation with GW-405833 (10 μM) (DU-145 cells [7]; 10 μM ligand co-incubated): MMP was not significantly reduced from vehicle-treated levels; mitochondrial membrane potential (MMP) depolarization (DU-145 cells [7]; 10 μM): had no effect on MMP; mitochondrial membrane potential (MMP) depolarization (DU-145 cells [7]; 50 μM): had no effect on MMP

Which results are given for `CCCCCCC(C)(C)c1ccc([C@@H]2C[C@H](O)CC[C@H]2CCCO)c(O)c1` [CP-55,940]?
displacement of [^3H]CP-55,940 ([8]; 0.2 nM radioligand): produced near or complete displacement; displacement of [^3H]WIN-55,212-2 (Figure 1B) ([8]; 1 nM radioligand): produced near or complete displacement; displacement of [^3H]CP-55,940 [9]: neither the non-selective CBR ligand CP-55,940 nor WIN-55,212-2 produced significant displacement; displacement of [^3H]CP-55,940 [10]: neither the non-selective CBR ligand CP-55,940 nor WIN-55,212-2 produced significant displacement; displacement of [^3H]CP-55,940 [11]: neither the non-selective CBR ligand CP-55,940 nor WIN-55,212-2 produced significant displacement; displacement of [^3H]CP-55,940 [12]: neither the non-selective CBR ligand CP-55,940 nor WIN-55,212-2 produced significant displacement; displacement of [^3H]CP-55,940 [13]: neither the non-selective CBR ligand CP-55,940 nor WIN-55,212-2 produced significant displacement; displacement of [^3H]WIN-55,212-2 (Figure 1B) [14]: only WIN-55,212-2, and not CP-55,940, significantly displaced; displacement of [^3H]WIN-55,212-2 (Figure 1B) [15]: only WIN-55,212-2, and not CP-55,940, significantly displaced; displacement of [^3H]WIN-55,212-2 (Figure 1B) [16]: only WIN-55,212-2, and not CP-55,940, significantly displaced; displacement of [^3H]WIN-55,212-2 [1]: only WIN-55,212-2, and not CP-55,940, significantly displaced; displacement of [^3H]WIN-55,212-2 [2]: only WIN-55,212-2, and not CP-55,940, significantly displaced; displacement of [^3H]CP-55,940 [17]: produced near or complete displacement; displacement of [^3H]CP-55,940 [18]: produced near or complete displacement; displacement of [^3H]WIN-55,212-2 (Figure 1B) [19]: produced near or complete displacement; displacement of [^3H]WIN-55,212-2 (Figure 1B) [20]: produced near or complete displacement
